Measurements from patent US11760773B2, “Small molecule drug conjugates of gemcitabine monophosphate” (MaveriX Oncology, Inc., priority 2018, dated 2023).
Structures can show the parent of a compound that is named as a salt. Where two headings read alike, the source gives them in different places.

Key:
[1] = Solubility / formulation; type: physicochemical; settings: water; read-out: soluble in water
[2] = system: UT-SCC-9; assay: Tumor cell proliferation (alamarBlue) cytotoxicity assay, UT-SCC-9; type: cell-based, human
Experimental: (§1) A tumor cell proliferation assay was used to determine cytotoxicity IC50 values for the phosphate prodrug Compounds 1-9, the parent non-phosphorylated SMDC parent compounds, and the effector (gemcitabine) across eight primary early-passage human head and neck squamous cell carcinoma cell lines including UT-SCC-5, UT-SCC-8, UT-SCC-9, UT-SCC-10, UT-SCC-14, UT-SCC-16A, UT-SCC-16B, and UT-SCC-24A.
(§2) UTSCC cells were seeded at 4000 cells/100 I/well on 96-well black clear-bottom tissue culture plate. Cells were incubated at 37° C. and 5% CO2 overnight to allow them to recover and re-attach. The next day cells were treated with the test compound (0-100 μM) for 72 hours. After treatment, cell proliferation was measured by Fluorescent quantitation of alamarBlue reagent. The alamarBlue assay incorporates a fluorometric/colorimetric growth indicator based on detection of metabolic activity. Specifically, resazurin, the active ingredient of alamarBlue reagent, is blue in color and virtually non-fluorescent. Upon entering cells, resazurin is reduced to resorufin, a compound that is red in color and highly fluorescent.
(§3) Continued cell growth maintains a reduced environment, therefore increasing the overall fluorescence and color of the media surrounding cells. The fluorescence intensity of alamarBlue reagent was directly proportional to cell number. To perform the alamarBlue assay, 10 I of alamarBlue reagent was added to each well and the plate was incubated at 37° C. for an additional 2 hour. Fluorescence intensity was measured at an excitation of 530 nm and an emission of 590 nm using a BioTek Synergy™ 2 microplate reader.
(§4) Cell proliferation assays in triplicate were performed at each concentration. The fluorescent intensity data were analyzed using the computer software, Graphpad Prism. In the absence of the compound, the fluorescent intensity (Ft) in each data set was defined as 100%. In the absence of cells, the fluorescent intensity (Fb) in each data set was defined as 0%. The percent cell in the presence of each compound was calculated according to the following equation: % cell=(F−Fb)/(Ft−Fb), where F=the fluorescent intensity in the presence of the compound, Fb=the fluorescent intensity in the absence of cells, and Ft=the fluorescent intensity in the absence of the compound. The values of % cell versus a series of compound concentrations were then plotted using non-linear regression analysis of Sigmoidal dose-response curve generated with the equation Y=B+(T−B)/1+10^((Log EC50-X)×Hill Slope) where Y=percent cell, B=minimum percent cell, T=maximum percent cell, X=logarithm of compound and Hill Slope=slope factor or Hill coefficient. The IC50 value was determined by the concentration causing a half-maximal percent activity.

[3] = system: primary head and neck squamous cell carcinoma cell lines; assay: Cytotoxicity, average over the eight UT-SCC cell lines; type: cell-based, human
Experimental: as §1
UTSCC cells were seeded at 4000 cells/100 I/well on 96-well black clear-bottom tissue culture plate. Cells were incubated at 37° C. and 5% CO2 overnight to allow them to recover and re-attach. The next day cells were treated with the test compound (0-100 μM) for 72 hours. After treatment, cell proliferation was measured by Fluorescent quantitation of alamarBlue reagent. […]
as §3, with “To perform the alamarBlue assay, 10 I of alamarBlue reagent was added to each well and the plate was incubated at 37° C. for an additional 2 hour.” left out
Cell proliferation assays in triplicate were performed at each concentration. The fluorescent intensity data were analyzed using the computer software, Graphpad Prism. […] The IC50 value was determined by the concentration causing a half-maximal percent activity.

[4] = Comparative plasma PK of Compound 1 versus Int 1-4 in male CD-1 mice (study b); type: in vivo; settings: male, CD-1, mouse, iv; for AUC(0-inf): read-out: AUC0-inf; for MRT inf: read-out: MRT0-inf; for MRT last: read-out: MRT0-last; for Vd: read-out: Vdss
Experimental: Objectives: to compare the plasma pharmacokinetics and stability of Compound 1 with its non-phosphorylated SMDC analog (Int 1-4) and in plasma following a single intravenous infusion administration of Compound 1 at 11.6 mg/kg and 23.2 mg/kg with Int 1-4 (formulation F1 & F2) at 10.0 mg/kg in male CD-1 mice
PK measurements: compare PK parameters C0, CL, Vdss, Cmax, tmax, t1/2, AUC(0-t), AUC(0-inf), MRT(0-t), MRT(0-inf) for Compound 1 and Int 1-4

[5] = Compound 1 and gemcitabine plasma PK in the male cynomolgus monkey (study h); type: in vivo
Experimental: Objectives: to compare the plasma pharmacokinetics and stability of the Compound 1 with Int 1-4 and in plasma following a single intravenous infusion administration of Compound 1 at 5 mg/kg and 10 mg/kg with equimolar gemcitabine at 2.28 mg/kg in male cynomolgous monkeys.
PK measurements: compare PK parameters C0, CL, Vdss, Cmax, tmax, t1/2, AUC(0-t), AUC(0-inf), MRT(0-t), MRT(0-inf) for Compound 1 and Int 1-4 with gemcitabine.

[6] = system: UT-SCC-10; assay: Tumor cell proliferation (alamarBlue) cytotoxicity assay, UT-SCC-10; type: cell-based, human
Experimental: as §1, §2, §3, §4

[7] = system: UT-SCC-16B; assay: Tumor cell proliferation (alamarBlue) cytotoxicity assay, UT-SCC-16B; type: cell-based, human
Experimental: as §1, §2, §3, §4

[8] = system: UT-SCC-8; assay: Tumor cell proliferation (alamarBlue) cytotoxicity assay, UT-SCC-8; type: cell-based, human
Experimental: as §1, §2, §3, §4

[9] = system: UT-SCC-24A; assay: Tumor cell proliferation (alamarBlue) cytotoxicity assay, UT-SCC-24A; type: cell-based, human
Experimental: as §1, §2, §3, §4

[10] = Mouse plasma stability (Compound 1); type: in vitro ADME
[11] = system: UT-SCC-5; assay: Tumor cell proliferation (alamarBlue) cytotoxicity assay, UT-SCC-5; type: cell-based, human
Experimental: as §1, §2, §3, §4

[12] = system: UT-SCC-16A; assay: Tumor cell proliferation (alamarBlue) cytotoxicity assay, UT-SCC-16A; type: cell-based, human
Experimental: as §1, §2, §3, §4

[13] = system: UT-SCC-14; assay: Tumor cell proliferation (alamarBlue) cytotoxicity assay, UT-SCC-14; type: cell-based, human
Experimental: as §1, §2, §3, §4

[14] = 11.6 mg/kg, after iv Compound 1 11.6 mg/kg
[15] = 23.2 mg/kg, after iv Compound 1 23.2 mg/kg
[16] = plasma, after iv Compound 1 5 mg/kg
[17] = Homo sapiens, 72 hours treatment

solubility [1]: > 300 mg/mL | AUC(0-t) [4, 14]: 202 ng·h/mL | C0 [4, 14]: 21900 ng/mL | clearance [4, 14]: 1970 mL/min/kg | half-life [4, 14]: 0.882 min | AUC(0-inf) [4, 14]: 202 ng·h/mL | MRT inf [4, 14]: 0.654 min | MRT last [4, 14]: 0.648 min | Vd [4, 14]: 1.41 L/kg | AUC(0-t) [4, 15]: 103 ng·h/mL | C0 [4, 15]: 2330 ng/mL | clearance [4, 15]: 5190 mL/min/kg | half-life [4, 15]: 2.18 min | AUC(0-inf) [4, 15]: 105 ng·h/mL | MRT inf [4, 15]: 2.73 min | MRT last [4, 15]: 2.56 min | Vd [4, 15]: 12 L/kg | VDss fold lower than Int 1-4 [5]: 10 fold | AUC(0-t) [5, 16]: 1830 ng·h/mL | C0 [5, 16]: 139 µg/mL | clearance [5, 16]: 46.5 mL/min/kg | half-life [5, 16]: 0.6 min | MRT inf ([5]; plasma, after iv Compound 1 5 mg/kg, read-out: MRT0-inf): 36 s | MRT last ([5]; plasma, after iv Compound 1 5 mg/kg, read-out: MRT0-last): 36 s | Vd ([5]; plasma, after iv Compound 1 5 mg/kg, read-out: Vdss): 0.0357 L/kg | stability in mouse plasma [10]: stable | Slope Mean ± SE ([10]; 3 μM, 37° C.): 0.00413 ± 0.000752
Structure (SMILES): COc1cc(OC)c2oc(COC(=O)Nc3ccn([C@@H]4O[C@H](COP(=O)(O)O)[C@@H](O)C4(F)F)c(=O)n3)cc2c1 [Compound 1, ((2R,3R,5R)-5-(4-((((5,7-dimethoxybenzofuran-2-yl)methoxy)carbonyl)-amino)-2-oxopyrimidin-1(2H)-yl)-4,4-difluoro-3-hydroxytetrahydrofuran-2-yl)methyl hydrogen phosphate triethyl ammonium salt]
IC50 ([2]; Homo sapiens, UT-SCC-9, 72 hours treatment): 53 nM | Cytotoxicity IC50 ratio Compound 1/Int 1-4 ([2]; UT-SCC-9): 1.4 | Cytotoxicity IC50 ratio Compound 1/gemcitabine ([2]; UT-SCC-9): 1.5 | average ratio of cytotoxicity IC50 values Compound 1/Int 1-4 [3]: ~1 | average ratio of cytotoxicity IC50 values Compound 1/gemcitabine [3]: ~1.6 | IC50 ([6]; Homo sapiens, UT-SCC-10, 72 hours treatment): 14 nM | Cytotoxicity IC50 ratio Compound 1/Int 1-4 ([6]; UT-SCC-10): 1.6 | Cytotoxicity IC50 ratio Compound 1/gemcitabine ([6]; UT-SCC-10): 1.6 | Cytotoxicity IC50 ratio Compound 1/Int 1-4 [7]: 0.8 | Cytotoxicity IC50 ratio Compound 1/gemcitabine [7]: 1.3 | IC50 [7, 17]: 130 nM | IC50 ([8]; Homo sapiens, UT-SCC-8, 72 hours treatment): 23 nM | Cytotoxicity IC50 ratio Compound 1/Int 1-4 ([8]; UT-SCC-8): 0.7 | Cytotoxicity IC50 ratio Compound 1/gemcitabine ([8]; UT-SCC-8): 1.0 | Cytotoxicity IC50 ratio Compound 1/Int 1-4 [9]: 0.9 | Cytotoxicity IC50 ratio Compound 1/gemcitabine [9]: 1.3 | IC50 [9, 17]: 18 nM | IC50 ([11]; Homo sapiens, UT-SCC-5, 72 hours treatment): 24 nM | Cytotoxicity IC50 ratio Compound 1/Int 1-4 ([11]; UT-SCC-5): 1.5 | Cytotoxicity IC50 ratio Compound 1/gemcitabine ([11]; UT-SCC-5): 2.7 | Cytotoxicity IC50 ratio Compound 1/Int 1-4 [12]: 0.5 | Cytotoxicity IC50 ratio Compound 1/gemcitabine [12]: 1.2 | IC50 [12, 17]: 73 nM | IC50 ([13]; Homo sapiens, UT-SCC-14, 72 hours treatment): 13 nM | Cytotoxicity IC50 ratio Compound 1/Int 1-4 ([13]; UT-SCC-14): 1.0 | Cytotoxicity IC50 ratio Compound 1/gemcitabine ([13]; UT-SCC-14): 2.2
